Experimental data: paper PMC8945229, “Development and Biological Characterization of a Novel Selective TrkA Agonist with Neuroprotective Properties against Amyloid Toxicity” (Biomedicines, 2022)
pIC50: −log10 of the molar value.

Experiments:
γ-secretase = γ-secretase activity / APP processing in U2OS APP-C99-tGFP cells; format: cell-based; conditions: 6 h
Description: PC12 and HEK293T cells were obtained from LGC Promochem GmbH (Teddington, UK) and cultured under the conditions specified by the manufacturer. NIH3T3 cells were stably transfected with human TrkB plasmid. PC12 cells were grown in DMEM medium (11965084, Gibco, Grand Island, NY, USA) containing 10% Horse Serum (16050122, Gibco, Grand Island, NY, USA), 5% Fetal Bovine Serum (10270106, Gibco, Grand Island, NY, USA), 100 units/mL Penicillin and 0.1 mg/mL Streptomycin (15140122, Gibco, Grand Island, NY, USA) at 5% CO2 and 37 °C. Cells were used between passages 5–20. HEK293T and NIH3T3 cells were grown in the same medium as PC12 cells supplemented with 10% Fetal Bovine Serum and lacking Horse Serum. For transient transfection of HEK293T cells, lipofectamine was used and cells were transfected with human p75^NTR and Traf6 plasmids. To determine the intracellular activity of endogenous secretases, we tagged (tGFP) a truncated mutant (Tm) of APP containing the original amino acids sequence from M516 to N773. This Tm conserves the secretases cleavage sites, clathrin binding site, tau protein binding site, collagen binding site and some glycosylation sites critical for protein localization and intracellular trafficking. The cDNA of the TmAPP gene was amplified by PCR and subcloned into pturbo-GFP vector. The construction was transfected into U2OS cells (ATCC Cat Number HTB-96) using Lipofectamine LTX (Thermo Fisher Scientific, Waltham, MA, USA). After 48 h, individual cells were plated in MTP96 plates using F.SIGHT (CYTENA GmbH, Freiburg, Germany), and cultured in complete medium containing 250 μg/mL G418 for selection. The selection medium was changed every two to three days. The cells were allowed to grow for 3 to 4 weeks, after which clones were isolated for further analysis. Resistant clones were checked by RT-PCR and epifluorescence microscopy.
The Alzheimer’s Disease (AD) phenotype is partly attributed to the toxic effects caused by oligmeric Aβ, which results in reduced neuronal trophic support, caused by deregulation of neurotrophic signaling. It is therefore reasonable that a small molecule that can selectively activate TrkA signaling and promote neuronal survival could alleviate the detrimental effects caused by toxic Aβ oligomers, especially during the early phases of the disease or modulate APP misprocessing and therefore reduce the production of the toxic Aβ. The U2OS stably expressing APP-C99-tGFP cell line was used in order to monitor γ-secretase activity, the process responsible for Aβ production from APP. The assay achieves this by measuring the levels of fluorescent APP-C99 construct produced by β-secretase activity. When γ-secretase is active, the construct is cleaved, leading to Aβ production. […] Therefore, higher fluorescence levels correspond to decreased γ-secretase activity and Aβ aggregate formation by extension. […] In addition, in order to investigate whether ENT-A013 can protect cells against Aβ-induced toxicity we isolated neurons from the hippocampus of E17.5 mouse embryos, a brain area that is heavily affected in AD. Neurons were left in culture for 16–18 DIV and then were treated with oligomeric Aβ and ENT-A013 for 48 h. Subsequently, cells were fixed and cell death was assessed using TUNEL assay.
(A,B) Primary hippocampal neurons were treated for 48 h with oligomeric Aβ in the presence of ENT-A013 and TUNEL assay was used to quantify cell death. Representative images from 3 independent experiments. Data are shown as ±SEM. One-way ANOVA, Tukey’s Test correction: ** p < 0.01; *** p < 0.001. (C) Aggregate formation on untreated cells, treated with DAPT inhibitor of γ-secretase or with compound ENT-A013. […] Aggregate formation was quantified with a BD Pathway 855 High-Content Bioimager and Attonvision software.

phosphorylated JNK = experiment: JNK phosphorylation in primary hippocampal neurons treated with oligomeric Aβ (Western blot); format: cell-based, mouse; conditions: 500 nM every 24 h, 48 h
Description: treated with ENT-A013 (500nM) or Neurotrophin-3 (100ng/ml) for 30’ and then subjected to Western Blot against phosphorylated TrkC, Akt and Erk1/2. […]
phosphorylated any of those. (D) CellTox assay was performed in NIH-3T3-TrkB cells that were starved from serum and treated with ENT-A013 or BDNF for 24hrs. Quantification (E) […]
negative control (Serum Free).
Supplementary Figure S3: Primary DRG neurons were cultured in the presence of ENT-A013 (500nM, supplemented every 48hrs) and a neutralizing antibody against NGF for 5 days and then neurite length was measured by immunostaining against Tuj1 .
Supplementary Figure S4: Primary hippocampal neurons at 14-16 DIV were treated with oligomeric Aβ and in the presence of ENT-A013 (500nM, supplemented every 24hrs) for 48hrs and then were subjected to Western Blot against phosphorylated JNK. A representative blot […]

CC12CCC(O)CC1=CCC1C2CCC2(C)C1CCC21CC1C=CBr [ENT-A013, (2′R,3S,17S)-2′-(2-Bromovinyl)-5-Androstene-17,1′-Cyclopropan-3-ol]
increase in APP spot levels compared to DAPT (γ-secretase; 10 μM): 166.3% | increase in APP spot levels compared to DAPT (γ-secretase; 30 μM): 246.4% | increase in APP spot levels compared to DAPT (γ-secretase; 100 μM): 243.9% | increase in APP spot levels compared to DAPT (γ-secretase; 300 μM): 239.9% | pIC50 (γ-secretase; Homo sapiens, U2OS, 100 nM to 300 μM, read-out: IC50 (γ-secretase activity, aggregate formation)): 4.03 | phosphorylated JNK levels (in words) (phosphorylated JNK): reduced phosphorylated JNK levels similar to untreated control cells
